Test results as given in ChEMBL document CHEMBL4390644, “Synthesis, structure-activity relationship studies and biological characterization of new [1,2,4]triazolo[1,5-a]pyrimidine-based LSD1/KDM1A inhibitors” (Eur J Med Chem, 2019).
Activity calls are given as the source filed them. The calls are words filed in the database; no cut-off is given here.

How the values were obtained:
[1] = target: T1, Lysine-specific histone demethylase 1A (Homo sapiens, UniProt O60341); assay: Inhibition of recombinant LSD1 (unknown origin) expressed in Escherichia coli BL21(DE) using H3K4me2 substrate by amplex red and horseradish peroxidase based fluorescence assay
[2] = target: T1, Lysine-specific histone demethylase 1A; conditions: 1.6 uM
Description: Irreversible inhibition of recombinant LSD1 (unknown origin) expressed in Escherichia coli BL21(DE) assessed as recovery of enzyme activity at 1.6 uM using H3K4me2 substrate incubated for 1 hr followed by 80 fold dilution by dilution assay

[3] = Antioxidant activity assessed as hydrogen peroxide scavenging activity at 10 uM incubated for 30 mins by ferrous ion oxidation-xylenol orange based method; format: functional
MAO-A [4] = target: T2, MAO-A (Homo sapiens, UniProt P21397); assay: Inhibition of N-terminal FLAG-tagged full length recombinant human MAO-A expressed in Sf9 cells at 10 uM using luciferin derived luminogenic substrate preincubated for 15 mins followed by substrate addition and measured after 60 mins by MAO-Glo assay relative to control; conditions: probe luciferin derived luminogenic substrate
T2 sequence (P21397 whole entry): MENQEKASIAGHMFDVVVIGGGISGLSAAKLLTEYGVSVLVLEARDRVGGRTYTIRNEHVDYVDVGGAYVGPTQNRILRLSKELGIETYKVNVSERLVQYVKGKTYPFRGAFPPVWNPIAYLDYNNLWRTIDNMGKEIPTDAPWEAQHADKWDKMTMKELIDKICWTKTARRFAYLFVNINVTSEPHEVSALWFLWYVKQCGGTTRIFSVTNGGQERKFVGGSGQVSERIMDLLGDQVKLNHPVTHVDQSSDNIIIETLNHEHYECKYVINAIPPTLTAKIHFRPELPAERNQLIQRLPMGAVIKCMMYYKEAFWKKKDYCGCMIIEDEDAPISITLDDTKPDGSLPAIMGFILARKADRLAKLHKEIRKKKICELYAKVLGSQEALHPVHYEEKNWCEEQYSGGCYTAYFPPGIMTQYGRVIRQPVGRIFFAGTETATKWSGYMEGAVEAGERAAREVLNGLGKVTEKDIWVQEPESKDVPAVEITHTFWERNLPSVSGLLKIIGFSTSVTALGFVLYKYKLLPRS

MAO-A [5] = target: T2, MAO-A; assay: Inhibition of N-terminal FLAG-tagged full length recombinant human MAO-A expressed in Sf9 cells at 1 uM using luciferin derived luminogenic substrate preincubated for 15 mins followed by substrate addition and measured after 60 mins by MAO-Glo assay relative to control; conditions: probe luciferin derived luminogenic substrate
MAO-B [6] = target: T3, MAO-B (Homo sapiens, UniProt P27338); assay: Inhibition of N-terminal FLAG-tagged full length recombinant human MAO-B expressed in Sf9 cells at 10 uM using luciferin derived luminogenic substrate preincubated for 15 mins followed by substrate addition and measured after 60 mins by MAO-Glo assay relative to control; conditions: probe luciferin derived luminogenic substrate
T3 sequence (P27338 whole entry): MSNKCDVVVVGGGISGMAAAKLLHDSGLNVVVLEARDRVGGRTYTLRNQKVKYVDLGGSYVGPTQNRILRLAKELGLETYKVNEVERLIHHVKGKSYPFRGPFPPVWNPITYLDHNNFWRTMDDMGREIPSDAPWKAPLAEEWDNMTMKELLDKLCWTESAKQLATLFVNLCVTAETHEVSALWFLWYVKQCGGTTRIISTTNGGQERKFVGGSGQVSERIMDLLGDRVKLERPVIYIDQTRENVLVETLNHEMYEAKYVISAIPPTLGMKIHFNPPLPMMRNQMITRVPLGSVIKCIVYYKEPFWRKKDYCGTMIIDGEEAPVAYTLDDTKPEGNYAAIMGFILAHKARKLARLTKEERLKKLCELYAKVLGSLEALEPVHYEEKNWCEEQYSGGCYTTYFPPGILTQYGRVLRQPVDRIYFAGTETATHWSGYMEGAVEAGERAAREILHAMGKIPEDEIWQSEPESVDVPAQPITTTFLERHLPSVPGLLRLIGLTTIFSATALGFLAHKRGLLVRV

MAO-B [7] = target: T3, MAO-B; assay: Inhibition of N-terminal FLAG-tagged full length recombinant human MAO-B expressed in Sf9 cells at 1 uM using luciferin derived luminogenic substrate preincubated for 15 mins followed by substrate addition and measured after 60 mins by MAO-Glo assay relative to control; conditions: probe luciferin derived luminogenic substrate
A549 [8] = assay: Antiproliferative activity against human A549 cells assessed as reduction in cell viability measured after 72 hrs by MTT based method; conditions: A549, 72 h
A549 [9] = assay: Effect on LSD1 expression in human A549 cells up to 16 uM after 96 hrs by Western blot analysis; format: functional, cell-based
A549 [10] = assay: Down regulation of snail levels in human A549 cells up to 16 uM after 96 hrs by Western blot analysis; format: functional, cell-based
A549 [11] = assay: Down regulation of N-cadherin levels in human A549 cells up to 16 uM after 96 hrs by Western blot analysis; format: functional, cell-based
A549 [12] = assay: Down regulation of slug levels in human A549 cells up to 16 uM after 96 hrs by Western blot analysis; format: functional, cell-based
A549 [13] = assay: Up regulation of claudin-1 levels in human A549 cells up to 16 uM after 96 hrs by Western blot analysis; format: functional, cell-based
A549 [14] = assay: Up regulation of E-cadherin levels in human A549 cells up to 16 uM after 96 hrs by Western blot analysis; format: functional, cell-based
Armoracia rusticana = conditions: 10 uM
Description: Inhibition of horseradish peroxidase at 10 uM incubated for 10 mins with presence of H2O2 by absorbance based method relative to control

A549 [15] = conditions: Homo sapiens, 16 uM
Description: Antimigratory activity in human A549 cells at 16 uM after 48 hrs by Hoechst 33258 staining based transwell assay

[16] = target: T1, Lysine-specific histone demethylase 1A; assay: Binding affinity to LSD1 in human A549 cells assessed as increase in stability of cellular LSD1 protein at 10 uM pre-incubated for 1 hr followed by heating at 49 degC for 3 mins by Western blot-based CESTA; format: cell-based
[17] = target: T1, Lysine-specific histone demethylase 1A; assay: Binding affinity to LSD1 in human A549 cells assessed as increase in stability of cellular LSD1 protein at 10 uM pre-incubated for 1 hr followed by heating at 52 degC for 3 mins by Western blot-based CESTA; format: cell-based
A549 [18] = assay: Antiproliferative activity against human A549 cells assessed as reduction in cell viability at 1.25 to 100 uM measured after 72 hrs by MTT based method; format: functional
[19] = target: T1, Lysine-specific histone demethylase 1A; assay: Binding affinity to LSD1 in human A549 cells assessed as increase in stability of cellular LSD1 protein at 10 to 20 uM pre-incubated for 1 hr followed by heating at 46 and 52 degC for 3 mins by Western blot-based CESTA; format: cell-based
[20] = target: T1, Lysine-specific histone demethylase 1A; assay: Inhibition of LSD1 in human A549 cells assessed as accumulation of H3K4me1 at 8 to 16 uM after 96 hrs by Western blot analysis; format: cell-based
[21] = target: T1, Lysine-specific histone demethylase 1A; assay: Inhibition of LSD1 in human A549 cells assessed as accumulation of H3K4me2 at 8 to 16 uM after 96 hrs by Western blot analysis; format: cell-based
[22] = target: T1, Lysine-specific histone demethylase 1A; assay: Inhibition of LSD1 in human A549 cells assessed as accumulation of H3K9me1 at 8 to 16 uM after 96 hrs by Western blot analysis; format: cell-based
[23] = target: T1, Lysine-specific histone demethylase 1A; assay: Inhibition of LSD1 in human A549 cells assessed as accumulation of H3K9me2 at 8 to 16 uM after 96 hrs by Western blot analysis; format: cell-based
A549 [24] = assay: Antiproliferative activity against human A549 cells assessed as reduction in cell viability at <40 uM measured after 72 hrs by MTT based method; format: functional

Cc1cc(Nc2ccc(N3CCN(C)CC3)cc2)n2nc(SCCCc3ccccc3)nc2n1
IC50 [1]: > 50 µM

Cc1cc(Nc2ccc(N3CCN(C)CC3)cc2)n2nc(SCC3CC3)nc2n1
IC50 [1]: > 50 µM

CN1CCN(c2ccc(Nc3cc(-c4ccccc4)nc4ncnn34)cc2)CC1
IC50 [1]: > 50 µM

Cc1nc2nc(SCc3ccc(Cl)cc3)nn2c(Nc2ccc(N3CCN(C)CC3)cc2)c1C
IC50 [1]: > 50 µM

O=C(O)c1ccc(CN2CCC(CN[C@@H]3C[C@H]3c3ccccc3)CC2)cc1
inhibition [2]: inactive

Cc1cc(Nc2ccc(N3CCN(C)CC3)cc2)n2nc(SCc3nc4ccccc4[nH]3)nc2n1
Activity [3]: inactive | inhibition at 1 h, 10 µM (MAO-A [4]): 40% | inhibition at 1 h, 1 µM (MAO-A [5]): 13% | inhibition at 1 h, 10 µM (MAO-B [6]): 34% | inhibition at 1 h, 1 µM (MAO-B [7]): 18% | IC50 (A549 [8]): 23.8 µM | Activity (A549 [9]): inactive | Activity (A549 [10]): Active | Activity (A549 [11]): Active | Activity (A549 [12]): Active | Activity (A549 [13]): Active | Activity (A549 [14]): Active | inhibition (Armoracia rusticana): inactive | inhibition (A549 [15]): Active

CN1CCN(c2ccc(Nc3c4c(nc5ncnn35)CCC4)cc2)CC1
IC50 [1]: > 50 µM

c1ccc([C@@H]2C[C@H]2NC2CCNCC2)cc1
Activity [16]: Active | Activity [17]: Active | Activity (A549 [9]): inactive | Activity (A549 [10]): Active | Activity (A549 [11]): Active | Activity (A549 [12]): Active | Activity (A549 [13]): Active | Activity (A549 [14]): Active | Activity (A549 [18]): inactive

Cc1cc(Nc2ccccc2)n2nc(SCc3nc4ccccc4[nH]3)nc2n1
IC50 [1]: > 50 µM | Activity [3]: inactive | Activity [19]: inactive | Activity (A549 [9]): inactive | Activity (A549 [10]): inactive | Activity (A549 [11]): inactive | Activity (A549 [12]): inactive | Activity (A549 [13]): inactive | Activity (A549 [14]): inactive | inhibition [20]: inactive | inhibition [21]: inactive | inhibition [22]: inactive | inhibition [23]: inactive | Activity (A549 [24]): inactive

Cc1cc(N)n2nc(SCc3ccccc3)nc2n1
IC50 [1]: > 50 µM

Cc1cc(Nc2ccccc2)n2nc(SCc3ccccc3)nc2n1
IC50 [1]: > 50 µM

CCCCCc1c(C)nc2nc(SCc3ccc(Cl)cc3)nn2c1Nc1ccc(N2CCN(C)CC2)cc1
IC50 [1]: > 50 µM

Cc1cc(Nc2ccc(N3CCN(C)CC3)cc2)n2nc(SCc3ccccc3[N+](=O)[O-])nc2n1
IC50 [1]: > 50 µM
